In patent US6858638B2, “Substituted indazoles, compositions containing them, method of production and use” (Aventis Pharma S.A., priority 2002, dated 2005):

Tests used:
Assay type in all cases: biochemical
[1] = target: T1, Aurora2 kinase (Homo sapiens, UniProt O14965); assay: Aurora2 kinase radioactivity scintillation assay using nickel chelate (NuMA substrate); settings: 10 μM; read-out: Aurora2 % inhib at 10 μM
T1 construct: A complete recombinant Aurora2 enzyme; His tag (N); made in house; host or cells: E. coli
T1 sequence (O14965 1-403): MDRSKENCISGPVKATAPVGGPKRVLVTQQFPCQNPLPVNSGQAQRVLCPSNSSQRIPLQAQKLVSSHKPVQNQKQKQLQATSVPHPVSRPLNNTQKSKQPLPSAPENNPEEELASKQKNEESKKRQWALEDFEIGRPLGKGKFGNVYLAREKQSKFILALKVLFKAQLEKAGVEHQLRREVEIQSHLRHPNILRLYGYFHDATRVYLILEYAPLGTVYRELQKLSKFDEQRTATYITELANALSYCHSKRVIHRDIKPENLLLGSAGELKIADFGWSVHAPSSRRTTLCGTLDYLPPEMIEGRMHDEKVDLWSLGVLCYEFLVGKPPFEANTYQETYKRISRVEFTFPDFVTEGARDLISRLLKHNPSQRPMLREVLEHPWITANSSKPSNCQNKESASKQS
Summary of the method: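 Read-out is 33P incorporation into His-NuMA (Q1687-H2101, 0.5 μM) captured on nickel chelate, after 30 min at 37 °C with 0.02 μM His-Aurora2 and 1 μM ATP. Expressed as percentage inhibition of uncompounded control activity, background subtracted.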

[2] = target: T2, human FAK (Homo sapiens, UniProt Q05397); assay: FAK autophosphorylation inhibition, time resolved fluorescence (HTRF) assay; settings: for inhibition at 10 µM: 10 μM (values without asterisk), read-out: FAK % inhib at 10 μM; for inhibition at 30 µM: 30 μM (values marked *), read-out: FAK % inhib at 30* μM
T2 construct: The complete cDNA of human FAK; made in house; host or cells: baculovirus expression system (vector pFastBac HTc)
Summary of the method: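 Autophosphorylation was detected by europium-cryptate anti-pTyr and XL665 anti-His energy transfer, percent inhibition from the 665/620 ratio relative to no-compound wells. Enzyme: His-FAK full length, 6.6 µg/ml, incubated 1 h at 37 °C, pH 7.2, 15 µM ATP.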

[3] = target: T3, human KDR enzyme (Homo sapiens, UniProt P35968); assay: KDR substrate (PLCγ) phosphorylation, scintillation assay; settings: 10 μM; read-out: KDR % inhib at 10 μM
T3 construct: The cytoplasmic domain of the human KDR enzyme; GST; made in house; host or cells: SF21 insect cells (baculovirus)
Summary of the method: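 Values are percent inhibition relative to the compound-free control, read by scintillation counting of 33P incorporation after EDTA stop. Baculovirus/SF21-expressed GST-KDR cytoplasmic domain (100 ng) acted for 1 h at 37 °C in pH 7.2 MOPS kinase buffer. The substrate was GST-PLCγ SH2-SH3 (2 μg), added with γ33P-ATP and 2 μM unlabeled ATP.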

T2 sequence (Q05397 whole entry): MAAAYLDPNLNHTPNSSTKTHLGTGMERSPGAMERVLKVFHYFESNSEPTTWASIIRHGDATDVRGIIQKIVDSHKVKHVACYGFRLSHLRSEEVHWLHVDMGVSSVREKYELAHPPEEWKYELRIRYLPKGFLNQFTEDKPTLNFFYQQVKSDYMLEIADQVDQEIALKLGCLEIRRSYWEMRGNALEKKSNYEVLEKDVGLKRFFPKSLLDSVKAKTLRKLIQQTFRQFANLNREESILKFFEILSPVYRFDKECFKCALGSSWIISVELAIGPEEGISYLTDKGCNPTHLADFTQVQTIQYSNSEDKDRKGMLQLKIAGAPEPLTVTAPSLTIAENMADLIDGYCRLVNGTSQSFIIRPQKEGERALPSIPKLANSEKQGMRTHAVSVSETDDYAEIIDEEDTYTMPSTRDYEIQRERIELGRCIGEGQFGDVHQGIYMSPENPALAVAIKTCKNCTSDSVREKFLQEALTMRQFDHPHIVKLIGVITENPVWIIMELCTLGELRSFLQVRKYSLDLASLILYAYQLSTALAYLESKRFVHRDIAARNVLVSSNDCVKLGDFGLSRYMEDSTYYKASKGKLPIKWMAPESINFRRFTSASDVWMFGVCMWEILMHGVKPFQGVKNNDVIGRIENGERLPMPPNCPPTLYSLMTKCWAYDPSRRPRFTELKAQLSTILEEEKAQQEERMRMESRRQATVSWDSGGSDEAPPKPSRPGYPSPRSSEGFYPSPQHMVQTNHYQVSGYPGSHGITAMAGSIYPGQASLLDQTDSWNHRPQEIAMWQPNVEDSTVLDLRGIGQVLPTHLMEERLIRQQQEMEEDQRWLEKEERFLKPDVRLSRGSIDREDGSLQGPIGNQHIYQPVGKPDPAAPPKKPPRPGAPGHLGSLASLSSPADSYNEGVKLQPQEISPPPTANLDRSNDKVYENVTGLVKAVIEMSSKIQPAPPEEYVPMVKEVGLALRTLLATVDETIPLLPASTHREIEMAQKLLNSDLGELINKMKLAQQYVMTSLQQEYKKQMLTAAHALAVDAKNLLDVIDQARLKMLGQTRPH
T3 sequence (P35968 786-1356 limits assumed): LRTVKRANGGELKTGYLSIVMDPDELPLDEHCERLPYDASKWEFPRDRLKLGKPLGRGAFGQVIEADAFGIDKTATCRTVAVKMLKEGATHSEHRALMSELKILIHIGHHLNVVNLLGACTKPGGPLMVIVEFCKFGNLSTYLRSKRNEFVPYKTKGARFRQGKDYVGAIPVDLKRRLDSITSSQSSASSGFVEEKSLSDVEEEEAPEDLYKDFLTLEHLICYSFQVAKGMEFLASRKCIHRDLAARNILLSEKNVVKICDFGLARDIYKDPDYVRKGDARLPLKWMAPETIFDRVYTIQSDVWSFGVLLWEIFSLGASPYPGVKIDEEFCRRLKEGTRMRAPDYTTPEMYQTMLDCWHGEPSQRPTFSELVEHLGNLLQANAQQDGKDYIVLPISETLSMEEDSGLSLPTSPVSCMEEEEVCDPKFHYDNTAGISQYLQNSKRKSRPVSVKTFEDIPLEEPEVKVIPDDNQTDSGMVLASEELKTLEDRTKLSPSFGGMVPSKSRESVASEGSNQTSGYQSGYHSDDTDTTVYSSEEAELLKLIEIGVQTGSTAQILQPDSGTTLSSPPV

SMILES	inhibition at 10 µM [1]	inhibition at 10 µM [2]	inhibition at 10 µM [3]	inhibition at 30 µM [2]
O=S(=O)(Nc1ccc2[nH]nc(-c3ccccc3)c2c1)c1ccccc1F [Example 134, 2-Fluoro-N-(3-phenyl-1H-indazol-5-yl)-benzenesulfonamide]	100%	67%	90%	
COc1cccc(S(=O)(=O)Nc2ccc3[nH]nc(-c4ccccc4)c3c2)c1 [Example 156, 3-Methoxy-N-(3-phenyl-1H-indazol-5-yl)-benzenesulfonamide]	99%	56%	94%	
O=S(=O)(Nc1ccc2[nH]nc(-c3ccccc3)c2c1)c1ccc(F)c(F)c1 [Example 152, 3,4-Difluoro-N-(3-phenyl-1H-indazol-5-yl)-benzenesulfonamide]	92%	71%	93%	
CNc1n[nH]c2ccc(NS(=O)(=O)c3ccccc3S(C)(=O)=O)cc12 [Example 37, N-(3-Methylamino-1H-indazol-5-yl)-2-methylsulfonylbenzenesulfonamide]	36%	67%	8%	
O=S(=O)(Nc1ccc2[nH]nc(-c3ccccc3)c2c1)c1cccs1 [Example 110, N-(3-Phenyl-1H-indazol-5-yl)-thiophene-2-sulfonamide]	100%	66%	91%	
O=S(=O)(Nc1ccc2[nH]nc(-c3ccccc3)c2c1)c1ccc(Cl)c(Cl)c1 [Example 8, 3,4-Dichloro-N-(3-phenyl-1H-indazol-5-yl)benzenesulfonamide]	59%		81%	76%
Cc1n[nH]c2ccc(NS(=O)(=O)c3cccc(F)c3)cc12 [Example 9, 3-Fluoro-N-(3-methyl-1H-indazol-5-yl)benzenesulfonamide]	61%		18%	68%
Nc1n[nH]c2ccc(NS(=O)(=O)c3cc(F)cc(F)c3)cc12 [Example 42, N-(3-Amino-1H-indazol-5-yl)-3,5-difluorobenzenesulfonamide]	50%	100%	25%	

Other lines, results leading:

inhibition at 10 µM [1]	inhibition at 10 µM [2]	inhibition at 10 µM [3]	inhibition at 30 µM [2]	SMILES
81%	96%	20%		CS(=O)(=O)c1ccccc1S(=O)(=O)Nc1ccc2[nH]nc(N)c2c1 [Example 39, N-(3-Amino-1H-indazol-5-yl)-2-methylsulfonylbenzenesulfonamide]
100%	96%	76%		CS(=O)(=O)c1ccccc1S(=O)(=O)Nc1ccc2[nH]nc(-c3ccncc3)c2c1 [Example 54, 2-Methylsulfonyl-N-(3-pyridin-4-yl-1H-indazol-5-yl)benzenesulfonamide]
99%	99%	95%		CS(=O)(=O)c1ccccc1S(=O)(=O)Nc1ccc2[nH]nc(/C=C/c3ccc(F)cc3)c2c1 [Example 74, N-{3-[(E)-2-(4-Fluorophenyl)vinyl]-1H-indazol-5-yl}-2-methylsulfonylbenzenesulfonamide]
100%	98%	93%		CS(=O)(=O)c1ccccc1S(=O)(=O)Nc1ccc2[nH]nc(-c3nc4ccccc4[nH]3)c2c1 [Example 81, N-[3-(1H-Benzimidazol-2-yl)-1H-indazol-5-yl]-2-methylsulfonylbenzenesulfonamide]
90%		20%	66%	Cc1n[nH]c2ccc(NS(=O)(=O)c3ccccc3S(C)(=O)=O)cc12 [Example 10, 2-Methylsulfonyl-N-(3-methyl-1H-indazol-5-yl)benzenesulfonamide]
97%	89%	70%		CS(=O)(=O)c1ccccc1S(=O)(=O)Nc1ccc2[nH]nc(-c3ccccc3)c2c1 [Example 7, 2-Methylsulfonyl-N-(3-phenyl-1H-indazol-5-yl)benzenesulfonamide]
100%	88%	85%		CS(=O)(=O)c1ccccc1S(=O)(=O)Nc1ccc2[nH]nc(-c3ccc(Cl)cc3)c2c1 [Example 30, N-[3-(4-Chlorophenyl)-1H-indazol-5-yl]-2-methylsulfonylbenzenesulfonamide]
